Measured values taken from patent US8980879B2 (AbbVie Inc., priority 2013, dated 2015).

Assays:
BRD4 (BDI_K57-E168) = biological target: T1, BRD4 (BDI_K57-E168) (Homo sapiens, UniProt O60885); assay: TR-FRET bromodomain binding assay, BRD4 first bromodomain; conditions: His-tagged BD1, 100 nM Alexa647 probe; assay protocol D or F as given per row in c1; Ki calculated from IC50
T1 construct: BD1: amino acids K57-E168; made in house
Description: (§1) A time-resolved fluorescence resonance energy transfer (TR-FRET) assay was used to determine the affinities of compounds of the Examples listed in Table 1 for each bromodomain of BRD4. His-tagged first (BD1: amino acids K57-E168) and second (BD2: amino acids E352-E168) bromodomains of BRD4 were expressed and purified. An Alexa647-labeled BET-inhibitor was used as the fluorescent probe in the assay.
(§2) Compound dilution series were prepared in DMSO via an approximately 3-fold serial dilution from one of the following:
(§3) Assay method D: 500 μM-8.5 nM
(§4) Assay method E: 0.47 mM to 7.8 nM
(§5) Assay method F: 250 μM-4.2 nM
(§6) Assay method G: 0.047 mM to 0.78 nM
(§7) or 5-fold serial dilution from one of the following:
(§8) Assay method A: 2.5 mM-800 nM
(§9) Assay method B: 2.5 mM-797 nM
(§10) For Assay methods A, C, D, and F: Compounds were then diluted 6:100 in assay buffer (20 mM Sodium Phosphate, pH 6.0, 50 mM NaCl, 1 mM Ethylenediaminetetraacetic acid, 0.01% Triton X-100, 1 mM DL-Dithiothreitol) to yield 3× working solutions. Six microliters (μL) of the working solution was then transferred to white, low-volume assay plates (Costar #3673). A 1.5× assay mixture containing His-tagged bromodomain, Europium-conjugated anti-His antibody (Invitrogen PV5596) and the Alexa-647-conjugated probe molecule was also prepared. Twelve μL of this solution were added to the assay plate to reach a final volume of 18 μL.
(§11) For Assay methods B, E, and G: Compound dilutions were added directly into white, low-volume assay plates (Perkin Elmer Proxiplate 384 Plus#6008280) using a Labcyte Echo in conjunction with Labcyte Access and Thermo Multidrop CombinL robotics. Compounds were then suspended in eight microliters (μL) of assay buffer (20 mM Sodium Phosphate, pH 6.0, 50 mM NaCl, 1 mM Ethylenediaminetetraacetic acid disodium salt dihydrate, 0.01% Triton X-100, 1 mM DL-Dithiothreitol) containing His-tagged bromodomain, Europium-conjugated anti-His antibody (Invitrogen PV5596) and Alexa-647-conjugated probe.
(§12) The final concentration of 1× assay mixture for assay methods A, B, C, D, E, F, and G contains 2% DMSO, 8 nM His-tagged bromodomain, 1 nM Europium-conjugated anti-His-tag antibody and 100 nM or 30 nM probe (for BDI or BDII, respectively) and compound concentration in the range of: 50 μM-16 nM for method A, 49.02 μM-15.63 nM for method B, 25 μM-423 pM for method C, 10 μM-169 pM for method D, 9.19 μM 150 pM for method E, 5 μM-85 pM for method F, and 0.92 μM-15 pM for method G.
(§13) After a one-hour equilibration at room temperature, TR-FRET ratios were determined using an Envision multilabel plate reader (Ex 340, Em 495/520).
(§14) TR-FRET data were normalized to the means of 24 no-compound controls (“high”) and 8 controls containing 1 μM un-labeled probe (“low”). Percent inhibition was plotted as a function of compound concentration and the data were fit with the 4 parameter logistic equation to obtain IC50s Inhibition constants (Ki) were calculated from the IC50s, probe Kd and probe concentration. Typical Z′ values were between 0.65 and 0.75. The minimum significant ratio was determined to evaluate assay reproducibility (Eastwood et al., (2006) J Biomol Screen, 11: 253-261). The MSR was determined to be 2.03 for BDI and 1.93 for BDII, and a moving MSR (last six run MSR overtime) for both BDI and BDII was typically <3.

BRD4 (BDII_E352-M457) = biological target: T2, BRD4 (BDII_E352-M457) (Homo sapiens, UniProt O60885); assay: TR-FRET bromodomain binding assay, BRD4 second bromodomain
T2 construct: protocol; made in house
Description: as §1, §2, §3, §4, §5, §6, §7, §8, §9, §10, §11, §12, §13, §14

[1] = tested on: breast cancer cell line MX-1; assay: MX-1 cell line proliferation assay; type: cell-based; conditions: Homo sapiens, MX1; MX-1 cells, 3-day (72 h) proliferation, Cell Titer Glo; read-out: Cellular proliferation: EC50
Description: MX-1 Cell Line Proliferation Assay
The impact of compounds of the Examples on cancer cell proliferation was determined using the breast cancer cell line MX-1 (ATCC) in a 3-day proliferation assay and the data are reported in Table 1. MX-1 cells were maintained in RPMI 1640 medium (Sigma) supplemented with 10% FBS at 37 C.° and an atmosphere of 5% CO2. For compound testing, MX-1 cells were plated in 96-well black bottom plates at a density of 5000 cells/well in 90 μL of culture media and incubated at 37° overnight to allow cell adhesion and spreading. Compound dilution series were prepared in DMSO via a 3-fold serial dilution from 3 mM to 0.1 μM. The DMSO dilution series were then diluted 1:100 in phosphate buffered saline, and 10 μL of the resulted solution were added to the appropriate wells of the MX-1 cell plate. The final compound concentrations in the wells were 3, 1, 0.3, 0.1, 0.03, 0.01, 0.003, 0.001, 0.0003 and 0.0001 μM.
Luminescence readings from the Cell Titer Glo assay were normalized to the DMSO treated cells and analyzed using the GraphPad Prism software with sigmoidal curve fitting to obtain EC50s. The minimum significant ratio (MSR) was determined to evaluate assay reproducibility (Eastwood et al., (2006) J Biomol Screen, 11: 253-261). The overall MSR was determined to be 2.1 and a moving MSR (last six run MSR overtime) has been <2.

Row | SMILES | Ki (BRD4 (BDI_K57-E168)) | Ki (BRD4 (BDII_E352-M457)) | EC50 [1]
1 | Cn1cc2c3c(c[nH]c(=O)c31)CN(c1ccc(F)cc1)c1ccc(NS(=O)(=O)c3ccccc3)cc1-2 [Example 26] | 0.27 nM | 3.12 nM | 9.48 nM
2 | Cn1cc(CC(=O)Nc2ccc3c(c2)-c2cn(C)c4c(=O)[nH]cc(c24)CN3c2ccc(F)cc2)cn1 [Example 28] | 1.17 nM | 8.21 nM | 13.5 nM
3 | Cc1ncc(CC(=O)Nc2ccc3c(c2)-c2cn(C)c4c(=O)[nH]cc(c24)CN3c2ccc(F)cc2)s1 [Example 32] | 1.37 nM | 11.6 nM | 12.3 nM
4 | Cc1cc(CC(=O)Nc2ccc3c(c2)-c2cn(C)c4c(=O)[nH]cc(c24)CN3c2ccc(F)cc2)nn1C [Example 33] | 1.49 nM | 6.39 nM | 17.4 nM
5 | Cn1cc2c3c(c[nH]c(=O)c31)CN(c1ccc(F)cc1)c1ccc(NC(=O)CCCC(=O)Nc3ccccc3)cc1-2 [Example 34] | 2.2 nM | 24.9 nM | 47.9 nM
6 | CCn1ccc(CNc2ccc3c(c2)-c2cn(C)c4c(=O)[nH]cc(c24)CN3c2ccc(F)cc2)n1 [Example 37] | 1.07 nM | 7.42 nM | 19 nM
7 | Cn1nccc1CNc1ccc2c(c1)-c1cn(C)c3c(=O)[nH]cc(c13)CN2c1ccc(F)cc1 [Example 38] | 1.52 nM | 9.3 nM | 9 nM
8 | COC(=O)CCCNc1ccc2c(c1)-c1cn(C)c3c(=O)[nH]cc(c13)CN2c1ccc(F)cc1 [Example 41] | 1.73 nM | 12.5 nM | 55.6 nM
9 | Cc1cccnc1CNc1ccc2c(c1)-c1cn(C)c3c(=O)[nH]cc(c13)CN2c1ccc(F)cc1 [Example 43] | 1.25 nM | 6.49 nM | 17.3 nM
10 | Cn1cc2c3c(c[nH]c(=O)c31)CN(c1ccc(F)cc1)c1ccc(NC(=O)Nc3cccc(Oc4ccccc4)c3)cc1-2 [Example 44] | 53.3 nM | > 408 nM | > 1000 nM
11 | Cc1ccc(F)cc1CNC(=O)c1ccc2c(c1)-c1cn(C)c3c(=O)[nH]cc(c13)CN2c1ccc(F)cc1 [Example 57] | 1.72 nM | 29 nM | 54.9 nM
12 | Cn1cc2c3c(c[nH]c(=O)c31)CN(c1ccc(F)cc1)c1ccc(C(=O)NCc3cc(F)ccc3Cl)cc1-2 [Example 60] | 3.2 nM | 46.1 nM | 75.5 nM
13 | Cn1cc2c3c(c[nH]c(=O)c31)CN(c1ccc(F)cc1)c1ccc(C(=O)NCc3cnn(Cc4ccccc4)c3)cc1-2 [Example 62] | 1.62 nM | 33.1 nM | 65.6 nM
14 | Cn1cc2c3c(c[nH]c(=O)c31)CN(c1ccc(F)cc1)c1ccc(C(=O)NCc3ccccc3)cc1-2 [Example 63] | 1.98 nM | 22 nM | 49.9 nM
15 | CCS(=O)(=O)Nc1cnc2c(c1)-c1cn(C)c3c(=O)[nH]cc(c13)CN2c1ccc(F)cc1F [Example 68] | 1.26 nM | 1.79 nM | 17.5 nM
16 | Cn1cc2c3c(c[nH]c(=O)c31)CN(c1ccc(Cl)cc1)c1ncc(N)cc1-2 [Example 69] | 0.78 nM | 1.89 nM | 4.4 nM
17 | CCS(=O)(=O)Nc1cnc2c(c1)-c1cn(C)c3c(=O)[nH]cc(c13)CN2c1ccc(Cl)cc1 [Example 70] | 0.79 nM | 0.708 nM | 24.4 nM

More lines, now with the values ahead:

Row | Ki (BRD4 (BDI_K57-E168)) | Ki (BRD4 (BDII_E352-M457)) | EC50 [1] | SMILES
18 | 0.2 nM | 1.73 nM | 8.56 nM | CC(=O)Nc1ccc(S(=O)(=O)Nc2ccc3c(c2)-c2cn(C)c4c(=O)[nH]cc(c24)CN3c2ccc(F)cc2)cc1 [Example 27]
19 | 3.53 nM | 21.8 nM | 51.2 nM | Cn1cc2c3c(c[nH]c(=O)c31)CN(c1ccc(F)cc1)c1ccc(NC(=O)Cc3cc(F)ccc3Cl)cc1-2 [Example 30]
20 | 2.01 nM | 18.9 nM | 26.4 nM | Cc1cnc(C(=O)Nc2ccc3c(c2)-c2cn(C)c4c(=O)[nH]cc(c24)CN3c2ccc(F)cc2)cn1 [Example 35]
21 | 1.94 nM | 12.3 nM | 23.2 nM | Cn1cc2c3c(c[nH]c(=O)c31)CN(c1ccc(F)cc1)c1ccc(NCCCn3cccn3)cc1-2 [Example 39]
22 | 0.86 nM | 7.27 nM | 25.5 nM | Cc1cccc(CNc2ccc3c(c2)-c2cn(C)c4c(=O)[nH]cc(c24)CN3c2ccc(F)cc2)n1 [Example 40]
23 | 2.07 nM | 13.4 nM | 9.83 nM | Cn1cncc1CNc1ccc2c(c1)-c1cn(C)c3c(=O)[nH]cc(c13)CN2c1ccc(F)cc1 [Example 42]
24 | 1.14 nM | 13.3 nM | 14.3 nM | CN1CCN(CCC(=O)Nc2ccc3c(c2)-c2cn(C)c4c(=O)[nH]cc(c24)CN3c2ccc(F)cc2)CC1 [Example 47]
25 | 2.39 nM | 19.5 nM | 29.5 nM | Cn1cc2c3c(c[nH]c(=O)c31)CN(c1ccc(F)cc1)c1ccc(NC(=O)CCN3CCCCC3)cc1-2 [Example 48]
26 | 2.74 nM | 29.8 nM | 65.1 nM | Cn1cc2c3c(c[nH]c(=O)c31)CN(c1ccc(F)cc1)c1ccc(NC(=O)Cc3cc(F)ccc3Br)cc1-2 [Example 49]
27 | 5.94 nM | 33.1 nM | 63.7 nM | Cn1cc2c3c(c[nH]c(=O)c31)CN(c1ccc(F)cc1)c1ccc(NC(=O)Cc3cc(Cl)ccc3Cl)cc1-2 [Example 50]
28 | 2.76 nM | 55.9 nM | 55.9 nM | Cn1cc2c3c(c[nH]c(=O)c31)CN(c1ccc(F)cc1)c1ccc(NC(=O)Cc3cc(F)ccc3F)cc1-2 [Example 52]
29 | 1.83 nM | 12.7 nM | 63.3 nM | Cn1cc2c3c(c[nH]c(=O)c31)CN(c1ccc(F)cc1)c1ccc(C(=O)NCc3cc(F)ccc3Br)cc1-2 [Example 58]
30 | 3.92 nM | 44.9 nM | 55.5 nM | COc1ccc(F)cc1CC(=O)Nc1ccc2c(c1)-c1cn(C)c3c(=O)[nH]cc(c13)CN2c1ccc(F)cc1 [Example 65]
31 | 2.14 nM | 30.1 nM | 44.6 nM | Cn1cc2c3c(c[nH]c(=O)c31)CN(c1ccc(F)cc1)c1ccc(NC(=O)Cc3cc(F)ccc3[N+](=O)[O-])cc1-2 [Example 66]
32 | 1.65 nM | 2.21 nM | 35.6 nM | Cn1cc2c3c(c[nH]c(=O)c31)CN(c1ccc(Cl)cc1)c1ncc(NS(C)(=O)=O)cc1-2 [Example 71]
33 | 3.61 nM | 17 nM | > 1000 nM | CCS(=O)(=O)Nc1ccc2c(c1)-c1cn(C)c3c(=O)[nH]cc(c13)CN2C1CCN(C(C)=O)CC1 [Example 74]
